Target: T1, purified CD26 (Homo sapiens, UniProt P27487)
T1 construct: made in house
Assay: Conversion of peptide prodrugs to parent compound by purified CD26 (HPLC)
Assay type: biochemical
Settings: for % conversion to parent compound by purified CD26, 1 h / % conversion to parent compound by purified CD26, 4 h / % conversion to parent compound by purified CD26, 24 h / Conversion % to parent compound by purified CD26, 4 h / Conversion % to parent compound by purified CD26, 24 h / Conversion % to parent compound by purified CD26, 1 h: purified CD26 1.5 mUnits; for Conversion % to parent compound by purified CD26, 4 h / Conversion % to parent compound by purified CD26, 24 h / Conversion % to parent compound by purified CD26, 1 h: Table 1
Protocol: To reveal whether CD26 recognizes such synthetic di/tripeptide derivatives of lipophilic nucleoside analogues as a substrate, 50 μM CAM-405 or CAM-431 was exposed to 5.7 mUnits of purified CD26, and the conversion of CAM-405 or CAM-431 to respectively CAM-212 or CAM-403 (Val-NAP-TSAO) was recorded in function of incubation time by HPLC analysis. […] Within the first 10 min of the reaction, at least 20% of CAM-405 had been converted to CAM-212, fifty percent of the TSAO dipeptide derivative was converted to CAM-212 within 30 min of the reaction and ˜67% of CAM-405 was hydrolyse after 60 min. Thus, the reaction rate started already to slow down after the first 10 min of drug exposure (FIG. 2). Most likely, the release of the reaction product Val-Pro dose-dependently feed-back inhibited the CD26-catalysed dipeptidyl-peptidase reaction. […] Thus, in the presence of 50 μM CAM-405, hydrolysis of 50% of CAM-405 to CAM-212 results in the appearance of 25 μM Val-Pro, that is a concentration that (feed-back) inhibits the CD26 reaction by ˜50%. These findings explain why the CD26-catalysed reaction levels-off shortly after the start of the exposure of the drug to CD26. […] Thus, a further level of modulation of the rate of prodrug release can be introduced by choosing a dipeptide moiety that competes for the active site of CD26, until the dipeptide has diffused from the tissue wherein CD26 is present. The inhibitory activity of any dipeptide can be evaluated by the above mentioned assay.
The conversion rate in function of time is given in Table 1 for NAP-TSAO-dipeptides where the dipeptide consists of: Val-Pro, Val-D-Pro, Asp-Pro, Lys-Pro, Tyr-Pro, Gly-Pro, Val-4-hydroxyPro, Gly-3,4-dihydroxyPro, but also Val-Gly, Val-Ala, Val-Leu and Val-Phe. It is clear that the conversion rate to the parent NAP-TSAO differs depending the nature of the dipeptide. Also, when the terminal amine of the dipeptide has been blocked by a lipophilic group (i.e. methyl, Z or Fmoc), the prodrug looses measurable substrate activity for CD26.
The conversion rate in function of time is given in Table 2 for tetrapeptide NAP-TSAO compounds where the tetrapeptide consists of: Val-Pro-Val-Pro [SEQ ID no:6] (CAM 467), Val-Ala-Val-Pro [SEQ ID no:7] (CAM 473) or Lys-Pro-Asp-Pro [SEQ ID no:8] (CAM 477). […] Only traces of dipeptide prodrug (CAM 405) is seen as intermediate in the conversion of the tetrapeptide CAM 473 to NAP-TSAO.
All enzyme activity assays were performed in Eppendorf tubes on a heating block at 37° C. To each tube were added 32 μl CD26 (at a final concentration of 1.5 milliUnits) or 10 μl foetal bovine serum (BS) (final concentration: 2.5% BS in PBS; preheated at 56° C. for 30 min) or 10 μl human serum (HS) (final concentration: 2.5% HS in PBS), 40 μl of appropriate concentrations of inhibitor (Diprotin A) solution in PBS (for the exact concentrations, see the legend to FIG. 5), CAM-405 (the substrate of the reaction) at […] (final concentration) and PBS to reach a total volume of 400 μl. The pH of the reaction mixture was 7.5, which is virtually identical to the physiological pH of plasma. The reaction was started by the addition of the enzyme or serum and carried out at 37° C. After 5 hr, 100 μl reaction mixture was taken from the Eppendorf tube and added to 200 μl cold methanol to precipitate the proteins. After 10 min standing on ice, the contents of the tubes were centrifuged and the supernatants analysed by HPLC on a reverse phase column (RP-8, Merck Laboratories). CAM-405 was separated from CAM-212 (the product of the reaction) by a gradient of 50 mM sodium phosphate+5 mM heptane sulfonic acid pH 3.2 (Buffer A) and acetonitrile (Buffer B) as follows: Buffer A: 98%+2% Buffer B, 2 min; linear gradient to 20% Buffer. […]

T1 sequence (P27487 whole entry): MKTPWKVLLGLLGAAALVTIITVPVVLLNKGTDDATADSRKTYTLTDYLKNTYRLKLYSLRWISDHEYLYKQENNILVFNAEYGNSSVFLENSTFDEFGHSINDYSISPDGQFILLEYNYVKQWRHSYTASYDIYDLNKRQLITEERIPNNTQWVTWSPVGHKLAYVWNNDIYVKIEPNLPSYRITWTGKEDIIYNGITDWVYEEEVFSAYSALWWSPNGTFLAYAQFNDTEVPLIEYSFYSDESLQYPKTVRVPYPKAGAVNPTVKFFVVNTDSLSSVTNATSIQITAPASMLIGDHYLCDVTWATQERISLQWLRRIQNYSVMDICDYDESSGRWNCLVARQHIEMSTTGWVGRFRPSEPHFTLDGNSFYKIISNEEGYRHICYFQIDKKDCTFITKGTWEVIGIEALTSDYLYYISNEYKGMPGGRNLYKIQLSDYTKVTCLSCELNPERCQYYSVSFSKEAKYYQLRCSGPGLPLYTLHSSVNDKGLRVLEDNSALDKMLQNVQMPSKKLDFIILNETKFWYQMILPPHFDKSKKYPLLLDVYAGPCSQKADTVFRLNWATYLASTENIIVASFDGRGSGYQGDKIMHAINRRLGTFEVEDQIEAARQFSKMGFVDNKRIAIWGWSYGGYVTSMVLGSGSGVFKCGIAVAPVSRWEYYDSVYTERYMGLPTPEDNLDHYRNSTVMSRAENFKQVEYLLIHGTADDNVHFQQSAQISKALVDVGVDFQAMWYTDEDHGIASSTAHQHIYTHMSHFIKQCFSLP

Row | Conversion / substrate activity with purified CD26, in words | Conversion % to parent compound by purified CD26, 4 h | Conversion % to parent compound by purified CD26, 24 h | % conversion to parent compound by purified CD26, 4 h (Table 2) | % conversion to parent compound by purified CD26, 24 h (Table 2) | Conversion % to parent compound by purified CD26, 1 h | % conversion to parent compound by purified CD26, 1 h (Table 2) | Compound | % conversion to parent compound by purified CD26, 1 h (Table 5) | % conversion to parent compound by purified CD26, 4 h (Table 5) | % conversion to parent compound by purified CD26, 24 h (Table 5)
1 |  | 7.9% | 30% | 7.9% | 30% |  |  | Cc1cn(C2OC(CO[Si](C)(C)C(C)(C)C)C3(OS(=O)(=O)C=C3N)C2O[Si](C)(C)C(C)(C)C)c(=O)n(CCCNC(=O)[C@@H]2CCCN2C(=O)[C@@H](N)CC(=O)O)c1=O (stereo partly drawn) [CAM-435, H-Asp-Pro-NAP-TSAO] |  |  | 
2 | quickly converted |  |  | 86% | 88% |  | 43% | Cc1cn(C2OC(CO[Si](C)(C)C(C)(C)C)C3(OS(=O)(=O)C=C3N)C2O[Si](C)(C)C(C)(C)C)c(=O)n(CCCNC(=O)C2CCCN2C(=O)C(NC(=O)C2CCCN2C(=O)C(N)C(C)C)C(C)C)c1=O (stereo not drawn) [CAM-467, H-Val-Pro-Val-Pro-NAP-TSAO] |  |  | 
3 |  | 20% | 58% |  |  | 5% |  | Cc1cn(C2OC(CO[Si](C)(C)C(C)(C)C)C3(OS(=O)(=O)C=C3N)C2O[Si](C)(C)C(C)(C)C)c(=O)n(CCCNC(=O)[C@@H]2CCCN2C(=O)CN)c1=O (stereo partly drawn) [CAM-458, H-Gly-Pro-NAP-TSAO] |  |  | 
4 | complete conversion within 1 hr |  |  |  |  |  |  | CC(C)[C@H](N)C(=O)N1CCC[C@H]1C(=O)Nc1ccc2ncccc2c1 [CAM-475, H-Val-Pro-6-Aminoquinoline] | 99% | 100% | 100%

The next lines start with the compound.

Row | Compound | Conversion / substrate activity with purified CD26, in words | Conversion % to parent compound by purified CD26, 4 h | Conversion % to parent compound by purified CD26, 24 h | % conversion to parent compound by purified CD26, 4 h (Table 2) | % conversion to parent compound by purified CD26, 24 h (Table 2) | Conversion % to parent compound by purified CD26, 1 h | % conversion to parent compound by purified CD26, 1 h (Table 2) | % conversion to parent compound by purified CD26, 1 h (Table 5) | % conversion to parent compound by purified CD26, 4 h (Table 5) | % conversion to parent compound by purified CD26, 24 h (Table 5)
5 | COc1cccc2c1C(=O)c1c(O)c3c(c(O)c1C2=O)CC(O)(C(=O)CO)CC3OC1CC(NC(=O)C2CCCN2C(=O)C(N)C(C)C)C(O)C(C)O1 (stereo not drawn) [CAM-469, H-Val-Pro-Doxorubicin] | very efficiently converted |  |  |  |  |  |  | 78% | 95% | 97%
6 | CNC(C(=O)N1CCCC1C(=O)NC(C(=O)NCCCn1c(=O)c(C)cn(C2OC(CO[Si](C)(C)C(C)(C)C)C3(OS(=O)(=O)C=C3N)C2O[Si](C)(C)C(C)(C)C)c1=O)C(C)C)C(C)C (stereo not drawn) [CAM-407, Me-NH-Val-Pro-Val-NHP-TSAO] | completely lacked substrate activity | 0% | 0% |  |  | 0% |  |  |  | 
7 | COc1cccc2c1C(=O)c1c(O)c3c(c(O)c1C2=O)CC(O)(C(=O)CO)CC3OC1CC(NC(=O)C2CCCN2C(=O)C(NC(=O)OCC2c3ccccc3-c3ccccc32)C(C)C)C(O)C(C)O1 (stereo not drawn) [CAM-468, Fmoc-Val-Pro-Doxorubicin] | no conversion |  |  |  |  |  |  | 0% | 0% | 0%
8 | H-Val-Pro-Val-NHP-TSAO [CAM-411] |  | 60% |  |  |  | 33% |  |  |  | 
9 | Cc1cn(C2OC(CO[Si](C)(C)C(C)(C)C)C3(OS(=O)(=O)C=C3N)C2O[Si](C)(C)C(C)(C)C)c(=O)n(CCCNC(=O)[C@@H]2CCCN2C(=O)[C@@H](N)Cc2ccc(O)cc2)c1=O (stereo partly drawn) [CAM-456, H-Tyr-Pro-NAP-TSAO] |  | 66% | 79% |  |  | 43% |  |  |  | 
10 | Cc1cn(C2OC(CO[Si](C)(C)C(C)(C)C)C3(OS(=O)(=O)C=C3N)C2O[Si](C)(C)C(C)(C)C)c(=O)n(CCCNC(=O)[C@@H]2CC(O)CN2C(=O)[C@@H](N)C(C)C)c1=O (some centres unmarked) [CAM-163, H-Val-4HyPro-NAP-TSAO] |  | 18% | 53% |  |  | 4.1% |  |  |  | 

Source: patent US8236756B2, “Prodrugs cleavable by CD26” (Consejo Superior de Investigaciones Clentificas (CSIC), priority 2003, dated 2012)
